In patent US11634396B2 (priority 2021, dated 2023):

target: human mOR (Homo sapiens (Human), UniProt P35372); test: cell-based; settings: not given
Sequence (P35372 whole entry): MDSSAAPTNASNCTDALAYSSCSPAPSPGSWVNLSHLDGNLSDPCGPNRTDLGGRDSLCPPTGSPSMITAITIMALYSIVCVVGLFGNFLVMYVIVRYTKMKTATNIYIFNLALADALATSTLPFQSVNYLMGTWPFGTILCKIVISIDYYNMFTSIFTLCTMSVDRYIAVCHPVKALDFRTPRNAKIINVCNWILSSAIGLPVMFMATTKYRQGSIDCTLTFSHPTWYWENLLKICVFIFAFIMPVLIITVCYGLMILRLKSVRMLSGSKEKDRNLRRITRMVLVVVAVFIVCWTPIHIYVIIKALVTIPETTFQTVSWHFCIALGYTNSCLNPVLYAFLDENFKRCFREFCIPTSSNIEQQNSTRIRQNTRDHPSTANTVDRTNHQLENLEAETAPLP

| Compound | IC50 [nM] |
| --- | --- |
| CN(C)[C@H](CNC(=O)CC(c1ncccn1)C1(C(F)(F)F)CC1)Cc1ccc(C(N)=O)c(F)c1 (stereo partly drawn) [Compound 71, 4-[(2S)-2-(dimethylamino)-3-[3-(pyrimidin-2-yl)-3-[1-(trifluoromethyl)cyclopropyl]propanamido]propyl]-2-fluorobenzamide] | < 300 |
| CNC(=O)c1ccc(C[C@@H](CNC(=O)CC(c2cc(C)ccn2)C2(C(F)(F)F)CC2)N(C)C)c(Cl)c1 (stereo partly drawn) [Compound 118, 3-chloro-4-((2S)-2-(dimethylamino)-3-(3-(4-methylpyridin-2-yl)-3-(1-(trifluoromethyl)cyclopropyl)propanamido)propyl)-N-methylbenzamide] | > 3000 |
| CN(C)[C@H](CNC(=O)C[C@H](c1cccnc1)C1(C)CC1)Cc1ccc2[nH]ncc2c1 [Compound 204, (S)-N-((S)-2-(dimethylamino)-3-(1H-indazol-5-yl)propyl)-3-(1-methylcyclopropyl)-3-(pyridin-3-yl)propanamide] | < 300 |
| CN(C)[C@H](CNC(=O)C[C@H](c1ccncc1)C1(C(F)(F)F)CC1)Cc1ccc(O)c(Cl)c1 [Compound 278, (R)-N-((S)-3-(3-chloro-4-hydroxyphenyl)-2-(dimethylamino)propyl)-3-(pyridin-4-yl)-3-(1-(trifluoromethyl)cyclopropyl)propanamide] | < 300 |
| CNC(=O)c1ccc(C[C@@H](CNC(=O)C[C@H](c2cccnc2)C(C)(C)C)N(C)C)c(C)c1 [Compound 129, 4-((S)-3-((S)-4,4-dimethyl-3-(pyridin-3-yl)pentanamido)-2-(dimethylamino)propyl)-N,3-dimethylbenzamide] | < 300 |
| Cc1ccc([C@@H](CC(=O)NC[C@H](Cc2ccc3[nH]ncc3c2)N(C)C)C2(C(F)(F)F)CC2)cn1 [Compound 211, (R)-N-((S)-2-(dimethylamino)-3-(1H-indazol-5-yl)propyl)-3-(6-methylpyridin-3-yl)-3-(1-(trifluoromethyl)cyclopropyl)propanamide] | < 300 |
| Cc1ncc([C@@H](CC(=O)NC[C@H](Cc2ccc(C(N)=O)c(F)c2Cl)N(C)C)C2(C(F)(F)F)CC2)s1 [Compound 16, 3-chloro-4-[(2S)-2-(dimethylamino)-3-[(3S)-3-(2-methyl-1,3-thiazol-5-yl)-3-[1-(trifluoromethyl)cyclopropyl]propanamido]propyl]-2-fluorobenzamide] | < 300 |
| CN(C)[C@H](CNC(=O)C[C@H](c1cccnc1)C1(C(F)(F)F)CC1)Cc1ccc2[nH]ncc2c1 [Compound 213, (R)-N-((S)-2-(dimethylamino)-3-(1H-indazol-5-yl)propyl)-3-(pyridin-3-yl)-3-(1-(trifluoromethyl)cyclopropyl)propanamide] | < 300 |
| Cc1ccc([C@@H](CC(=O)NC[C@H](Cc2ccc(C(N)=O)c(F)c2C)N(C)C)C2(C(F)(F)F)CC2)cn1 [Compound 46, 4-((S)-2-(dimethylamino)-3-((R)-3-(6-methylpyridin-3-yl)-3-(1-(trifluoromethyl)cyclopropyl)propanamido)propyl)-2-fluoro-3-methylbenzamide] | < 300 |
| CN(C)[C@H](CNC(=O)C[C@H](c1ccncc1F)C1(C(F)(F)F)CC1)Cc1ccc(C(N)=O)c(F)c1 [Compound 61, 4-((S)-2-(dimethylamino)-3-((R)-3-(3-fluoropyridin-4-yl)-3-(1-(trifluoromethyl)cyclopropyl)propanamido)propyl)-2-fluorobenzamide] | > 3000 |
| Cc1cc(O)cc(C)c1C[C@@H](CNC(=O)CC(c1ccc(C(F)(F)F)nc1)C1(C(F)(F)F)CC1)N(C)C (stereo partly drawn) [Compound 249, N-((S)-2-(dimethylamino)-3-(4-hydroxy-2,6-dimethylphenyl)propyl)-3-(1-(trifluoromethyl)cyclopropyl)-3-(6-(trifluoromethyl)pyridin-3-yl)propanamide] | < 300 |
| CN(C)[C@H](CNC(=O)CC(c1cccnc1)C1(C(F)(F)F)CC1)Cc1ccc(O)c(Cl)c1 (stereo partly drawn) [Compound 287, N-((S)-3-(3-chloro-4-hydroxyphenyl)-2-(dimethylamino)propyl)-3-(pyridin-3-yl)-3-(1-(trifluoromethyl)cyclopropyl)propanamide] | < 300 |
| CC[C@H](CC(=O)NC[C@H](Cc1c(C)cc(O)cc1C)N(C)C)c1cnc(C)s1 [Compound 252, (R)-N-((S)-2-(dimethylamino)-3-(4-hydroxy-2,6-dimethylphenyl)propyl)-3-(2-methylthiazol-5-yl)pentanamide] | < 300 |
| CN(C)c1ncc(C(CC(=O)NC[C@H](Cc2ccc(C(N)=O)cc2Cl)N(C)C)C2(C(F)(F)F)CC2)cn1 (stereo partly drawn) [Compound 29, 3-chloro-4-[(2S)-2-(dimethylamino)-3-{3-[2-(dimethylamino)pyrimidin-5-yl]-3-[1-(trifluoromethyl)cyclopropyl]propanamido}propyl]benzamide] | < 300 |
| CN(C)[C@H](CNC(=O)C[C@H](c1cccnc1)C1(C(F)(F)F)CC1)Cc1ccc2[nH]ncc2c1F [Compound 195, (R)-N-((S)-2-(dimethylamino)-3-(4-fluoro-1H-indazol-5-yl)propyl)-3-(pyridin-3-yl)-3-(1-(trifluoromethyl)cyclopropyl)propanamide] | < 300 |
| CN(C)[C@H](CNC(=O)C[C@@H](CC1CC1)c1cccnc1)Cc1ccc(O)cc1 [Compound 310, (R)-4-cyclopropyl-N-((S)-2-(dimethylamino)-3-(4-hydroxyphenyl)propyl)-3-(pyridin-3-yl)butanamide] | < 300 |
| Cc1cc(O)ccc1C[C@@H](CNC(=O)C[C@H](c1cncs1)C1CC1)N(C)C [Compound 264, (S)-3-cyclopropyl-N-((S)-2-(dimethylamino)-3-(4-hydroxy-2-methylphenyl)propyl)-3-(thiazol-5-yl)propanamide] | < 300 |
| CC(C)[C@H](CC(=O)NC[C@H](Cc1ccc(O)c(Cl)c1)N(C)C)c1cccnc1 [Compound 276, (S)-N-((S)-3-(3-chloro-4-hydroxyphenyl)-2-(dimethylamino)propyl)-4-methyl-3-(pyridin-3-yl)pentanamide] | < 300 |
| CNC(=O)c1ccc(C[C@@H](CNC(=O)C[C@H](c2ccncc2F)C2(C(F)(F)F)CC2)N(C)C)c(C)c1 [Compound 127, 4-((S)-2-(dimethylamino)-3-((R)-3-(3-fluoropyridin-4-yl)-3-(1-(trifluoromethyl)cyclopropyl)propanamido)propyl)-N,3-dimethylbenzamide] | < 300 |
| CNC(=O)c1cc(F)c(C[C@@H](CNC(=O)C[C@H](c2cnc(C)nc2)C2(C(F)(F)F)CC2)N(C)C)c(F)c1 [Compound 105, 4-((S)-2-(dimethylamino)-3-((R)-3-(2-methylpyrimidin-5-yl)-3-(1-(trifluoromethyl)cyclopropyl)propanamido)propyl)-3,5-difluoro-N-methylbenzamide] | 300 to 3000 |
| CNC(=O)c1ccc(C[C@@H](CNC(=O)C[C@H](c2ccc(F)cc2)C2(C(F)(F)F)CC2)N(C)C)c(C)c1 [Compound 128, 4-((S)-2-(dimethylamino)-3-((R)-3-(4-fluorophenyl)-3-(1-(trifluoromethyl)cyclopropyl)propanamido)propyl)-N,3-dimethylbenzamide] | < 300 |
| CN(C)[C@H](CNC(=O)C[C@@H](CC1CC1)c1cccnc1)Cc1ccc(O)c(Cl)c1 [Compound 279, (R)-N-((S)-3-(3-chloro-4-hydroxyphenyl)-2-(dimethylamino)propyl)-4-cyclopropyl-3-(pyridin-3-yl)butanamide] | < 300 |
| CN(C)[C@H](CNC(=O)C[C@H](c1ccsc1)C1(C(F)(F)F)CC1)Cc1ccc(O)cc1 [Compound 294, (S)-N-((S)-2-(dimethylamino)-3-(4-hydroxyphenyl)propyl)-3-(thiophen-3-yl)-3-(1-(trifluoromethyl)cyclopropyl)propanamide] | < 300 |

same assay, conditions: CHO Tag-lite human mOR stable cell line; forskolin 4 μM and DAMGO at EC90; read-out: mOR cAMP Antagonist Assay IC50

| Compound | IC50 [nM] |
| --- | --- |
| Cc1cc(O)cc(C)c1C[C@@H](CNC(=O)C1CC1c1ncccn1)N(C)C (stereo partly drawn) [Compound 248, N-((S)-2-(dimethylamino)-3-(4-hydroxy-2,6-dimethylphenyl)propyl)-2-(pyrimidin-2-yl)cyclopropane-1-carboxamide] | 300 to 3000 |
| CN(C)[C@H](CNC(=O)C[C@H](c1cncc(Cl)c1)C1(C(F)(F)F)CC1)Cc1ccc2[nH]ncc2c1 [Compound 205, (R)-3-(5-chloropyridin-3-yl)-N-((S)-2-(dimethylamino)-3-(1H-indazol-5-yl)propyl)-3-(1-(trifluoromethyl)cyclopropyl) propanamide] | < 300 |
| CNC(=O)c1ccc(C[C@@H](CNC(=O)C[C@@H](c2ccncc2)C2(C(F)(F)F)CC2)N(C)C)c(Cl)c1F (single isomer, unassigned) [Compound 111] | < 300 |
| Cc1cc(O)cc(C)c1C[C@@H](CNC(=O)C[C@H](C)c1ccc(Cl)cc1)N(C)C [Compound 250, (S)-3-(4-chlorophenyl)-N-((S)-2-(dimethylamino)-3-(4-hydroxy-2,6-dimethylphenyl)propyl)butanamide] | 300 to 3000 |
| CN(C)[C@H](CNC(=O)C[C@@H](CC1CC1)c1cccnc1)Cc1ccc2[nH]ncc2c1 [Compound 212, (R)-4-cyclopropyl-N-((S)-2-(dimethylamino)-3-(1H-indazol-5-yl)propyl)-3-(pyridin-3-yl)butanamide] | > 3000 |
| CN(C)[C@H](CNC(=O)C[C@H](c1cccnc1)C1CC1)Cc1ccc(O)cc1 [Compound 308, (S)-3-cyclopropyl-N-((S)-2-(dimethylamino)-3-(4-hydroxyphenyl)propyl)-3-(pyridin-3-yl)propanamide] | 300 to 3000 |
| CN(C)[C@H](CNC(=O)C[C@@H](c1ccccc1)C1(C(F)(F)F)CC1)Cc1ccc2[nH]ncc2c1 [Compound 190, (S)-N-((S)-2-(dimethylamino)-3-(1H-indazol-5-yl)propyl)-3-phenyl-3-(1-(trifluoromethyl)cyclopropyl)propanamide] | 300 to 3000 |

same assay, conditions: read-out: mOR cAMP Antagonist Assay IC50

| IC50 [nM] | Compound |
| --- | --- |
| > 3000 | CNC(=O)c1ccc(C[C@@H](CNC(=O)C[C@H](c2cnc(C)nc2)C2(C(F)(F)F)CC2)N(C)C)c(C)c1 [Compound 135, 4-((S)-2-(dimethylamino)-3-((R)-3-(2-methylpyrimidin-5-yl)-3-(1-(trifluoromethyl)cyclopropyl)propanamido)propyl)-N,3-dimethylbenzamide] |
